# Source: patent US20230085307A1, “PYRIDAZINONE COMPOUND AND HERBICIDE” (NISSAN CHEMICAL CORPORATION, priority 2019, published 2023)
# Test system: lambsquarters
# Assay: Test Example 5: herbicidal effect by foliage application, plastic box (Table 20, symbol O)
# Format: in vivo, lambsquarters (Chenopodium album)
# Conditions: foliage application, 320 g/ha, three weeks after application
# How it was run: (§1)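 Sow seeds spot-wise in sterilized diluvial soil; cover with ~1.5 cm soil. Grow 14 days in greenhouse, 25° C. to 30° C. Spray foliage with emulsion diluted to predetermined amount. Rate effect after 3 weeks.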
row,SMILES,"O: lambsquarters, herbicidal effect grade"
1,COc1ccccc1-c1sc2cc(OCCSC)ccc2c1-c1c(O)c(C)nn(C)c1=O [3-125],4 (Herbicidal rate of 70% or more and less than 90%)
2,COc1ccccc1-c1sc2cc(OCC3CCCO3)ccc2c1-c1c(O)c(C)nn(C)c1=O (stereo not shown) [3-133],5 (Herbicidal rate of 90% or more (almost completely withered))

# Test system: barnyard grass
# Assay: Test Example 4: herbicidal effect by soil treatment (Table 19, symbol H)
# Format: in vivo, barnyard grass (Echinochloa crus-galli)
# Conditions: amount of applied herbicide 320 g/ha
# How it was run: (§2)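 Applied as a water-diluted emulsion, the compound was sprayed onto soil covering newly sown seeds. Evaluation came three weeks after application, in a greenhouse held at 25° C. to 30° C.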
SMILES,"H: barnyard grass, herbicidal effect grade","Herbicidal effect by soil treatment, H: barnyard grass"
COc1ccccc1-c1sc2cc(OCCSC)ccc2c1-c1c(O)c(C)nn(C)c1=O [3-125],0 (Herbicidal rate of 5% or less (almost no effect)),–
COc1ccccc1-c1sc2cc(OCC3CCCO3)ccc2c1-c1c(O)c(C)nn(C)c1=O (stereo not shown) [3-133],–,1 (Herbicidal rate of 5% or more and less than 20%)

# Test system: wild oat
# Assay: Test Example 5: herbicidal effect by foliage application, plastic box (Table 20, symbol I)
# Format: in vivo, wild oat (Avena fatua)
# Conditions: foliage application, 320 g/ha, three weeks after application
# How it was run: as §1
row,SMILES,"I: wild oat, herbicidal effect grade"
1,COc1ccccc1-c1sc2cc(OCCSC)ccc2c1-c1c(O)c(C)nn(C)c1=O [3-125],5 (Herbicidal rate of 90% or more (almost completely withered))
2,COc1ccccc1-c1sc2cc(OCC3CCCO3)ccc2c1-c1c(O)c(C)nn(C)c1=O (stereo not shown) [3-133],4 (Herbicidal rate of 70% or more and less than 90%)

# Test system: lambsquarters
# Assay: Test Example 4: herbicidal effect by soil treatment (Table 19, symbol O)
# Format: in vivo, lambsquarters (Chenopodium album)
# Conditions: amount of applied herbicide 320 g/ha
# How it was run: as §2
SMILES,"O: lambsquarters, herbicidal effect grade","Herbicidal effect by soil treatment, O: lambsquarters"
COc1ccccc1-c1sc2cc(OCCSC)ccc2c1-c1c(O)c(C)nn(C)c1=O [3-125],5 (Herbicidal rate of 90% or more (almost completely withered)),–
COc1ccccc1-c1sc2cc(OCC3CCCO3)ccc2c1-c1c(O)c(C)nn(C)c1=O (stereo not shown) [3-133],–,5 (Herbicidal rate of 90% or more (almost completely withered))

# Test system: blackgrass
# Assay: Test Example 4: herbicidal effect by soil treatment (Table 19, symbol J)
# Format: in vivo, blackgrass (Alopecurus myosuroides)
# Conditions: amount of applied herbicide 320 g/ha
# How it was run: as §2
SMILES,"J: blackgrass, herbicidal effect grade","Herbicidal effect by soil treatment, J: blackgrass"
COc1ccccc1-c1sc2cc(OCCSC)ccc2c1-c1c(O)c(C)nn(C)c1=O [3-125],5 (Herbicidal rate of 90% or more (almost completely withered)),–
COc1ccccc1-c1sc2cc(OCC3CCCO3)ccc2c1-c1c(O)c(C)nn(C)c1=O (stereo not shown) [3-133],–,3 (Herbicidal rate of 40% or more and less than 70%)

# Test system: barnyard grass
# Assay: Test Example 5: herbicidal effect by foliage application, plastic box (Table 20, symbol H)
# Format: in vivo, barnyard grass (Echinochloa crus-galli)
# Conditions: foliage application, 320 g/ha, three weeks after application
# How it was run: as §1
row,SMILES,"H: barnyard grass, herbicidal effect grade"
1,COc1ccccc1-c1sc2cc(OCCSC)ccc2c1-c1c(O)c(C)nn(C)c1=O [3-125],3 (Herbicidal rate of 40% or more and less than 70%)
2,COc1ccccc1-c1sc2cc(OCC3CCCO3)ccc2c1-c1c(O)c(C)nn(C)c1=O (stereo not shown) [3-133],3 (Herbicidal rate of 40% or more and less than 70%)

# Test system: green foxtail
# Assay: Test Example 4: herbicidal effect by soil treatment (Table 19, symbol G)
# Format: in vivo, green foxtail (Setaria viridis)
# Conditions: amount of applied herbicide 320 g/ha
# How it was run: as §2
SMILES,"G: green foxtail, herbicidal effect grade","Herbicidal effect by soil treatment, G: green foxtail"
COc1ccccc1-c1sc2cc(OCCSC)ccc2c1-c1c(O)c(C)nn(C)c1=O [3-125],2 (Herbicidal rate of 20% or more and less than 40%),–
COc1ccccc1-c1sc2cc(OCC3CCCO3)ccc2c1-c1c(O)c(C)nn(C)c1=O (stereo not shown) [3-133],–,5 (Herbicidal rate of 90% or more (almost completely withered))

# Test system: rice flat sedge
# Assay: Test Example 3: herbicidal effect by foliage application, Wagner pot (Table 18, symbol E)
# Format: in vivo, rice flat sedge (Cyperus iria)
# Conditions: 320 g/ha
# How it was run: (§3)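 Plants were sown in alluvial soil held under 0.1–0.5 cm standing water and grown 14 days in a greenhouse at 25–30 °C. An emulsifiable formulation, water-diluted to the set dose, was then sprayed onto the foliage, and effects were scored three weeks later using previously defined criteria.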
row,SMILES,herbicidal effect on rice flat sedge (E)
1,COc1ccccc1-c1sc2cc(OCCSC)ccc2c1-c1c(O)c(C)nn(C)c1=O [3-125],5 (Herbicidal rate of 90% or more (almost completely withered))
2,COc1ccccc1-c1sc2cc(OCC3CCCO3)ccc2c1-c1c(O)c(C)nn(C)c1=O (stereo not shown) [3-133],5 (Herbicidal rate of 90% or more (almost completely withered))

# Test system: chickweed
# Assay: Test Example 5: herbicidal effect by foliage application, plastic box (Table 20, symbol P)
# Format: in vivo, common chickweed (Stellaria media)
# Conditions: foliage application, 320 g/ha, three weeks after application
# How it was run: as §1
row,SMILES,"P: chickweed, herbicidal effect grade"
1,COc1ccccc1-c1sc2cc(OCCSC)ccc2c1-c1c(O)c(C)nn(C)c1=O [3-125],5 (Herbicidal rate of 90% or more (almost completely withered))
2,COc1ccccc1-c1sc2cc(OCC3CCCO3)ccc2c1-c1c(O)c(C)nn(C)c1=O (stereo not shown) [3-133],5 (Herbicidal rate of 90% or more (almost completely withered))

# Test system: Chinese sprangletop
# Assay: Test Example 3: herbicidal effect by foliage application, Wagner pot (Table 18, symbol D)
# Format: in vivo, chinese sprangletop (Leptochloa chinensis)
# Conditions: 320 g/ha
# How it was run: as §3
row,SMILES,herbicidal effect on Chinese sprangletop (D)
1,COc1ccccc1-c1sc2cc(OCCSC)ccc2c1-c1c(O)c(C)nn(C)c1=O [3-125],3 (Herbicidal rate of 40% or more and less than 70%)
2,COc1ccccc1-c1sc2cc(OCC3CCCO3)ccc2c1-c1c(O)c(C)nn(C)c1=O (stereo not shown) [3-133],3 (Herbicidal rate of 40% or more and less than 70%)

# Test system: velvetleaf
# Assay: Test Example 5: herbicidal effect by foliage application, plastic box (Table 20, symbol M)
# Format: in vivo, velvetleaf (Abutilon theophrasti)
# Conditions: foliage application, 320 g/ha, three weeks after application
# How it was run: as §1
row,SMILES,"M: velvetleaf, herbicidal effect grade"
1,COc1ccccc1-c1sc2cc(OCCSC)ccc2c1-c1c(O)c(C)nn(C)c1=O [3-125],4 (Herbicidal rate of 70% or more and less than 90%)
2,COc1ccccc1-c1sc2cc(OCC3CCCO3)ccc2c1-c1c(O)c(C)nn(C)c1=O (stereo not shown) [3-133],3 (Herbicidal rate of 40% or more and less than 70%)

# Test system: blackgrass
# Assay: Test Example 5: herbicidal effect by foliage application, plastic box (Table 20, symbol J)
# Format: in vivo, blackgrass (Alopecurus myosuroides)
# Conditions: foliage application, 320 g/ha, three weeks after application
# How it was run: as §1
row,SMILES,"J: blackgrass, herbicidal effect grade"
1,COc1ccccc1-c1sc2cc(OCCSC)ccc2c1-c1c(O)c(C)nn(C)c1=O [3-125],5 (Herbicidal rate of 90% or more (almost completely withered))
2,COc1ccccc1-c1sc2cc(OCC3CCCO3)ccc2c1-c1c(O)c(C)nn(C)c1=O (stereo not shown) [3-133],5 (Herbicidal rate of 90% or more (almost completely withered))

# Test system: Japanese bulrush
# Assay: Test Example 2: herbicidal activity, application during weed generation under submerged conditions (Table 17, symbol B)
# Format: in vivo, Japanese bulrush (Schoenoplectus juncoides)
# Conditions: AAH 320 g/ha; application during weed generation, submerged conditions
# How it was run: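 In this pot test, flooded alluvial soil (water depth 4 cm) holds all three species sown as a mixture. Once seedlings have one to two leaves, the compound's emulsion, thinned with water to the intended dose, is poured on the water; grading follows after three weeks on the earlier criteria.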
row,SMILES,"herbicidal effect rating, B: Japanese bulrush"
1,COc1ccccc1-c1sc2cc(OCCSC)ccc2c1-c1c(O)c(C)nn(C)c1=O [3-125],3 (Herbicidal rate of 40% or more and less than 70%)
2,COc1ccccc1-c1sc2cc(OCC3CCCO3)ccc2c1-c1c(O)c(C)nn(C)c1=O (stereo not shown) [3-133],3 (Herbicidal rate of 40% or more and less than 70%)

# Test system: windgrass
# Assay: Test Example 5: herbicidal effect by foliage application, plastic box (Table 20, symbol L)
# Format: in vivo, windgrass (Apera spica-venti)
# Conditions: foliage application, 320 g/ha, three weeks after application
# How it was run: as §1
row,SMILES,"L: windgrass, herbicidal effect grade"
1,COc1ccccc1-c1sc2cc(OCCSC)ccc2c1-c1c(O)c(C)nn(C)c1=O [3-125],5 (Herbicidal rate of 90% or more (almost completely withered))
2,COc1ccccc1-c1sc2cc(OCC3CCCO3)ccc2c1-c1c(O)c(C)nn(C)c1=O (stereo not shown) [3-133],5 (Herbicidal rate of 90% or more (almost completely withered))

# Test system: Italian ryegrass
# Assay: Test Example 5: herbicidal effect by foliage application, plastic box (Table 20, symbol K)
# Format: in vivo, Italian ryegrass (Lolium multiflorum)
# Conditions: foliage application, 320 g/ha, three weeks after application
# How it was run: as §1
row,SMILES,"K: Italian ryegrass, herbicidal effect grade"
1,COc1ccccc1-c1sc2cc(OCCSC)ccc2c1-c1c(O)c(C)nn(C)c1=O [3-125],5 (Herbicidal rate of 90% or more (almost completely withered))
2,COc1ccccc1-c1sc2cc(OCC3CCCO3)ccc2c1-c1c(O)c(C)nn(C)c1=O (stereo not shown) [3-133],5 (Herbicidal rate of 90% or more (almost completely withered))

# Test system: Italian ryegrass
# Assay: Test Example 4: herbicidal effect by soil treatment (Table 19, symbol K)
# Format: in vivo, Italian ryegrass (Lolium multiflorum)
# Conditions: amount of applied herbicide 320 g/ha
# How it was run: as §2
SMILES,"K: Italian ryegrass, herbicidal effect grade","Herbicidal effect by soil treatment, K: Italian ryegrass"
COc1ccccc1-c1sc2cc(OCCSC)ccc2c1-c1c(O)c(C)nn(C)c1=O [3-125],5 (Herbicidal rate of 90% or more (almost completely withered)),–
COc1ccccc1-c1sc2cc(OCC3CCCO3)ccc2c1-c1c(O)c(C)nn(C)c1=O (stereo not shown) [3-133],–,5 (Herbicidal rate of 90% or more (almost completely withered))

# Test system: persian speedwell
# Assay: Test Example 5: herbicidal effect by foliage application, plastic box (Table 20, symbol R)
# Format: in vivo, Persian speedwell (Veronica persica)
# Conditions: foliage application, 320 g/ha, three weeks after application
# How it was run: as §1
row,SMILES,"R: persian speedwell, herbicidal effect grade"
1,COc1ccccc1-c1sc2cc(OCCSC)ccc2c1-c1c(O)c(C)nn(C)c1=O [3-125],5 (Herbicidal rate of 90% or more (almost completely withered))
2,COc1ccccc1-c1sc2cc(OCC3CCCO3)ccc2c1-c1c(O)c(C)nn(C)c1=O (stereo not shown) [3-133],5 (Herbicidal rate of 90% or more (almost completely withered))
